# Calls of active or inactive are those of the source.
# Legend:
# Vero = assay: Vero E6 cell cytotoxicity, dose response, cytotoxicity control (AID 540298); format: functional; settings: Chlorocebus sabaeus
# MDCK [1] = assay: antiviral activity against H1N1 influenza, dose response, cell-based, strain KY136 (AID 540257); format: functional; settings: Canis lupus familiaris
# MDCK [2] = assay: MDCK cell cytotoxicity, dose response, cytotoxicity control (AID 540296); format: functional; settings: Canis lupus familiaris
# [3] = target: T1, Endoribonuclease toxin MazF (Escherichia coli K-12, UniProt P0AE70); assay: activation of MazEF endoribonuclease cleavage – biochemical, fluorescence, single-stranded RNA substrate, uHTS hits, dose response (AID 588481); format: functional
# [4] = target: T1, Endoribonuclease toxin MazF; assay: substrate-only fluorescence increase artefacts – biochemical, single-stranded RNase substrate, counter-screen for MazEF activator project, dose response (AID 588502); format: functional
# Phospholipase D2 = Phospholipase D2 (Homo sapiens, UniProt O14939); assay: cellular phospholipase D2 inhibition IC50 – cell-based, dose response (AID 602147); format: functional;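 further: cellular assay in HEK293 cells overexpressing GFP-tagged PLD2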
# Phospholipase D1 = Phospholipase D1 (Homo sapiens, UniProt Q13393); assay: cellular phospholipase D1 inhibition IC50 – cell-based, dose response (AID 602151); format: functional;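 further: cellular PLD1 assay in Calu-1 cells stimulated with PMA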
# [5] = target: T2, Kappa-type opioid receptor (Homo sapiens, UniProt P41145); format: functional
# [6] = target: T2, Kappa-type opioid receptor; format: functional; remark: listed apart in the source
# Streptococcus = assay: GAS UMAA2166 growth inhibition – luminescence, BacTiterGlo, counter-screen for streptokinase expression inhibitor project, dose response (AID 1915); format: functional, organism-based;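 further: potency for reduction of bacterial viability or growth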
# [7] = rise of 4N DNA cells, HeLa – IC50, dose response (AID 1117351); format: functional, cell-based
# Beta-galactosidase = Beta-galactosidase (Escherichia coli, UniProt Q8VNN2); format: functional
# Mu-type opioid receptor = Mu-type opioid receptor (Homo sapiens, UniProt P35372); assay: HTS Image-Based Screen for Agonists of the MOR Receptor. [Related pubchem assays (depositor defined):AID1777, AID1785, AID1786, AID2133]; format: functional;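 further: imaging of beta-arrestin GFP recruitment into spots after receptor activation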
# [8] = cytotoxicity toward HT-29 cells – cell-based, CellTiter-Glo luminescence, IC50, dose response (AID 1117330); format: functional
# [9] = target: T3, Delta-type opioid receptor (Homo sapiens, UniProt P41143); assay: HTS Image-Based Screen for Antagonists of the DOR Receptor. [Related pubchem assays (depositor defined):AID1777, AID1785, AID1786, AID2133]; format: functional
# [10] = target: T3, Delta-type opioid receptor; assay: HTS Image-Based Screen for Agonists of the DOR Receptor. [Related pubchem assays (depositor defined):AID1777, AID1786, AID2133]; format: functional
# [11] = target: Heat shock protein HSP 90-alpha (Homo sapiens, UniProt P07900); format: functional, organism-based
# [12] = CellTiter-Glo luminescence survival assay, SW480 colon tumor line, concentration-response curve, half-maximal inhibitory concentration (AID 1117338); format: functional
# [13] = SNU-C1 cell viability reduction, dose response, CellTiter-Glo luminescence (AID 1117323); format: functional, cell-based
# [14] = cytotoxicity toward HCT116 cells – cell-based, CellTiter-Glo luminescence, IC50, dose response (AID 1117332); format: functional; settings: HCT-116
# [15] = cytotoxicity toward Colo320 cells – cell-based, CellTiter-Glo luminescence, IC50, dose response (AID 1117334); format: functional; settings: COLO 320
# [16] = test system: Streptococcus sp. 'group A'; assay: Streptococcus pyogenes SK(-)GAS viability under kanamycin – luminescence, BacTiterGlo, confirmation, counter-screen for streptokinase expression inhibitor project, dose response (AID 1900); format: functional, organism-based
# [17] = Reduced DLD-1 viability, concentration-response, CellTiter-Glo luminescence (AID 1117352); format: functional
# [18] = HCT116 cell viability decrease, GSK3B pretreatment – CellTiter-Glo, IC50, dose response (AID 1117339); format: functional; settings: HCT-116
# [19] = RKO cell viability reduction, dose response, CellTiter-Glo luminescence (AID 1117322); format: functional
# HSP90 = HSP90 (Plasmodium falciparum 3D7, UniProt Q8IL32); format: functional, organism-based
# [20] = rise of 2N DNA cells, HeLa – IC50, dose response (AID 1117349); format: functional, cell-based
# T1 sequence (P0AE70 whole entry): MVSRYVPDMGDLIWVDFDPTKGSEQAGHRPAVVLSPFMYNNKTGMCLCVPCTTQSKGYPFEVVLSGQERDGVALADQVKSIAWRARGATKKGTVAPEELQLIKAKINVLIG
# T3 sequence (P41143 whole entry): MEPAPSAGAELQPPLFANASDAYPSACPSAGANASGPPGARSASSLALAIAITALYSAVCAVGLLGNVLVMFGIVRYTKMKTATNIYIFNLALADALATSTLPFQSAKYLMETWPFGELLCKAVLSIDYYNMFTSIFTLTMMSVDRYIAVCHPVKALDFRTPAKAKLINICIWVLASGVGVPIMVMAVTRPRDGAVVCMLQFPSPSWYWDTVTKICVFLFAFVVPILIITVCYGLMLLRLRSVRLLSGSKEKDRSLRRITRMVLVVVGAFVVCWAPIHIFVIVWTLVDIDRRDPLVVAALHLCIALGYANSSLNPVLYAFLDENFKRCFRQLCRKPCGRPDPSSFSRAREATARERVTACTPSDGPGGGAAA
# T2 sequence (P41145 whole entry): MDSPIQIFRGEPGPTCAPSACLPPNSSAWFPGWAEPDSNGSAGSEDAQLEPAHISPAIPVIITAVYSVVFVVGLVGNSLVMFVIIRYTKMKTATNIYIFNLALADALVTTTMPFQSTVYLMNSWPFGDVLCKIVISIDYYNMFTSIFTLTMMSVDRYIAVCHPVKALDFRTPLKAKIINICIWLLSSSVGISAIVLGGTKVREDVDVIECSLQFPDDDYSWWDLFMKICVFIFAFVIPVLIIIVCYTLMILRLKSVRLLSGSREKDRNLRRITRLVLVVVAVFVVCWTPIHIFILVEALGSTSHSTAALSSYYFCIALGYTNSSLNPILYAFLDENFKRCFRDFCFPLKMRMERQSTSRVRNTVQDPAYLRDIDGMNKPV
# Sequence of Phospholipase D2 (O14939 whole entry): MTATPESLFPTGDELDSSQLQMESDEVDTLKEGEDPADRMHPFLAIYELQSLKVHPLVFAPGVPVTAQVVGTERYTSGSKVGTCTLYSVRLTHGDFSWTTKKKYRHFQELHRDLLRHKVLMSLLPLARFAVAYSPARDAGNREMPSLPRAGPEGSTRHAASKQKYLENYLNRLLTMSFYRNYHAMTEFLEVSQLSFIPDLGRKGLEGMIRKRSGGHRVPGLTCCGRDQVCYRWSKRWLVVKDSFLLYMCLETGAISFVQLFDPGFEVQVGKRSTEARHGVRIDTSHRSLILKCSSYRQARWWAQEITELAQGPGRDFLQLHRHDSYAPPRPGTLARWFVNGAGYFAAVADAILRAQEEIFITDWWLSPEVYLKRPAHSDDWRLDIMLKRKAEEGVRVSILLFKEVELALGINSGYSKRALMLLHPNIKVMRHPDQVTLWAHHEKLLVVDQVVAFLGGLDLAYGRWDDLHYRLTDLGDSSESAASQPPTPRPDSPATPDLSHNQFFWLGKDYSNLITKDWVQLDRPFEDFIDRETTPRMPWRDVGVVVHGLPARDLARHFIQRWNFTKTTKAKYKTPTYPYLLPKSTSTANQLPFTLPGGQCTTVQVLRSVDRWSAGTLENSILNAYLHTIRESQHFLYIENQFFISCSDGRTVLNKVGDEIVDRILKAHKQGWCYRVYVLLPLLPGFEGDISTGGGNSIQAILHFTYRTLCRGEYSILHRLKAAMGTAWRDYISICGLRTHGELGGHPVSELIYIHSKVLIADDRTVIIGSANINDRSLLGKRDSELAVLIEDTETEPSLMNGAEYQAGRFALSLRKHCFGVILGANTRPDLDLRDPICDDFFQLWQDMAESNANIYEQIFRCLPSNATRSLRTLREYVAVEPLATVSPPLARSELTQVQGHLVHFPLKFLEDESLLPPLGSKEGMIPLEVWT
# Sequence of Beta-galactosidase (Q8VNN2 whole entry): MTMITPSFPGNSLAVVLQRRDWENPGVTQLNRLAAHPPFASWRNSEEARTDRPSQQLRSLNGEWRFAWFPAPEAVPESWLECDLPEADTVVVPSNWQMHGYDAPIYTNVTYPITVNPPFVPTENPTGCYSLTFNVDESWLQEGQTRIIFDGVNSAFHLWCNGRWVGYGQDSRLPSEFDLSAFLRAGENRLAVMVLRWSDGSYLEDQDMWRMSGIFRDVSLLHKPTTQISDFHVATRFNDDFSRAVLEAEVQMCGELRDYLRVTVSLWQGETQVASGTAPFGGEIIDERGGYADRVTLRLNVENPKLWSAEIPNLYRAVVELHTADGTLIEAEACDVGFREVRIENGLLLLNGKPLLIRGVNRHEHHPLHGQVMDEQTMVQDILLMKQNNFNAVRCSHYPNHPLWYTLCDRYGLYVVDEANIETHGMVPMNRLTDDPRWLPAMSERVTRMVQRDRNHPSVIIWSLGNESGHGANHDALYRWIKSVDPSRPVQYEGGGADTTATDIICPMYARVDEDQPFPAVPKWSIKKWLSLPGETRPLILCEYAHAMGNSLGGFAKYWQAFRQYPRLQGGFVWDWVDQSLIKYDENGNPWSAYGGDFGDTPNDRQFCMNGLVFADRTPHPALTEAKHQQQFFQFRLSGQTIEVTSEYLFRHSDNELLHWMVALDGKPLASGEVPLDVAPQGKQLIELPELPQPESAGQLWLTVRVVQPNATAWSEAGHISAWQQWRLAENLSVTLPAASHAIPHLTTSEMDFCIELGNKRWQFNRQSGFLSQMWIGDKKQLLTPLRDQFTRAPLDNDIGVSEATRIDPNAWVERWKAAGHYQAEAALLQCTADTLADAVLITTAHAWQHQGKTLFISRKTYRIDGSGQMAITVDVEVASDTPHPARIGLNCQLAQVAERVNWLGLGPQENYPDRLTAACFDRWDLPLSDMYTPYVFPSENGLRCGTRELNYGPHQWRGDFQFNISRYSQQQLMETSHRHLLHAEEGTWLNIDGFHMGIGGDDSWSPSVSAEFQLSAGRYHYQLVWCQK
# Sequence of HSP90 (Q8IL32 whole entry): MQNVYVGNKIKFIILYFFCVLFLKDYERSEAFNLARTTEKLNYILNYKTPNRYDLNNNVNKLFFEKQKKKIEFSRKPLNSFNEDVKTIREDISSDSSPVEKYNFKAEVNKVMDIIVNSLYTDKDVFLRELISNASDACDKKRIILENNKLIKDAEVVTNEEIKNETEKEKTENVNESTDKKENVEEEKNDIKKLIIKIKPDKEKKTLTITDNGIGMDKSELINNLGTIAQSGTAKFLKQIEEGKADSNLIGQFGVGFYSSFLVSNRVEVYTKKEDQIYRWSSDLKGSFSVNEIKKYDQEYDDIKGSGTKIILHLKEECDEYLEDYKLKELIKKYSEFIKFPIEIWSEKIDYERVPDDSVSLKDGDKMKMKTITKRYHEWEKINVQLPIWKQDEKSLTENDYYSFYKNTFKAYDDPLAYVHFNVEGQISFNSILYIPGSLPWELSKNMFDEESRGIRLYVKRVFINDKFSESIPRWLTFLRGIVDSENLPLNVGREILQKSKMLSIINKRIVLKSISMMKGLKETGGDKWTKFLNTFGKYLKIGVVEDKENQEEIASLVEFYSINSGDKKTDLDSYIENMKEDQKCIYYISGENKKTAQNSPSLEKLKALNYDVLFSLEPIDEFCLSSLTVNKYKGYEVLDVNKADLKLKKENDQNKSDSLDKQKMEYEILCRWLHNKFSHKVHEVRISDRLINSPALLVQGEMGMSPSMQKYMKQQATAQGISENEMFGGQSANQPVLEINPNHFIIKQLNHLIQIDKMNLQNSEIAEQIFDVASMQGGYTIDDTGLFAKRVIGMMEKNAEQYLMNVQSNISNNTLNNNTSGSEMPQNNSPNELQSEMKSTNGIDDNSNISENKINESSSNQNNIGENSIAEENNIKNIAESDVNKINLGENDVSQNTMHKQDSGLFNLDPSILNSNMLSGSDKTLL
# Sequence of Mu-type opioid receptor (P35372 whole entry): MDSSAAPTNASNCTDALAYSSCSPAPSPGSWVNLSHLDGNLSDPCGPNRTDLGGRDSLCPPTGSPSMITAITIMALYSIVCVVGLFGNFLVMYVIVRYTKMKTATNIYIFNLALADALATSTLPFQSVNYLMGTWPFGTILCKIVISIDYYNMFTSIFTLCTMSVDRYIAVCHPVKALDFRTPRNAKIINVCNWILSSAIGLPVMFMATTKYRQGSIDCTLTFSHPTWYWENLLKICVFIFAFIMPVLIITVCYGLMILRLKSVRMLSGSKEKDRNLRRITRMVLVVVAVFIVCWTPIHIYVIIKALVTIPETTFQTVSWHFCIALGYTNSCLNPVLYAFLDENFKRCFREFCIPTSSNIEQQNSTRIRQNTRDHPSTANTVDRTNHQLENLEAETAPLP
compound,measurement,setting,value
Cc1ccccc1NC(=O)/C(=C/c1ccco1)c1ccccc1,CC50,Vero,> 40 µM (active)
same,IC50,MDCK [1],15.4 µM (active)
same,CC50,MDCK [2],> 40 µM (active)
Cc1sc(NC(=O)CSc2nnc(N)[nH]2)c(C#N)c1C,EC50,[3],> 99 µM (inactive)
same,EC50,[4],> 99 µM (inactive)
O=C(NCCN1CCC(n2c(=O)[nH]c3cc(I)ccc32)CC1)c1ccc(Cl)cc1,IC50,Phospholipase D2,0.345 µM (active)
same,IC50,Phospholipase D1,0.005 µM (active)
Oc1c(Cl)cc(Cl)c2cccnc12 [CHLOROXINE],IC50,[5],4.56 µM (active)
same,IC50,[6],> 32 µM
same,EC50,Streptococcus,3.31 µM (active)
same,IC50,[7],> 10 µM (inactive)
same,EC50,Beta-galactosidase,> 31.5 µM (inactive)
same,EC50,Mu-type opioid receptor,> 32 µM (inactive)
same,IC50,[8],> 20 µM (inactive)
same,IC50,[9],> 32 µM (inactive)
same,EC50,[10],> 32 µM (inactive)
same,AC50,[11],1.05 µM (active)
same,IC50,[12],0.0438 µM (active)
same,IC50,[13],0.495 µM (active)
same,IC50,[14],0.0475 µM (active)
same,IC50,[15],0.0493 µM (active)
same,EC50,[16],0.258 µM (active)
same,IC50,[17],0.409 µM (active)
same,IC50,[18],0.0393 µM (active)
same,IC50,[19],0.0627 µM (active)
same,AC50,HSP90,0.511 µM (active)
same,IC50,[20],> 10 µM (inactive)

# From ChEMBL document CHEMBL1201862, “PubChem BioAssay data set” (2004)
